# Measured values reported in patent US9796742B2, “Kinase inhibitors” (Respivert Limited, priority 2012, dated 2017).
# Read-outs that look alike come from different tables or passages of the source.
# Columns and labels:
# PBMCs = assay: IL-2 and IFN gamma release in CD3/CD28 stimulated PBMC cells; assay type: cell-based; details: Homo sapiens
# How it was run: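 They were cultured with compound for 3 days. IL-2 and IFN-γ in supernatants were quantified by sandwich ELISA, and IC50 was derived from the dose-response curve.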
# GSK3α = GSK3α (Homo sapiens (Human), UniProt P49840); assay: GSK 3α enzyme inhibition (FRET, Z-LYTE; Method 2); assay type: biochemical
# How it was run: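 GSK3-α protein preincubated with compound for 105 min, then Z-LYTE FRET peptide and ATP added for 1 h before protease development for 1 h. Phosphorylation taken from coumarin/fluorescein emission ratio; percent inhibition against uninhibited control and IC50 calculated from concentration-response curves.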
# HT29 cells = assay: IL-1β-induced IL-8 release in HT29 cells; assay type: cell-based; details: Homo sapiens, HT-29, IL-1β-stimulated HT29 cells, read-out: IC50 Values for Inhibition of Cytokine Release, HT29 cells IL-8
# Method: HT29 cells, a human colon adenocarcinorna cell line, are plated in a 96 well plate (24 hrs) and pre-treated with compounds at the desired concentration for 2 hours before addition of 5 ng/mL of IL-1β (Abcam) for 24 hours. Supernatants are harvested for IL-8 quantification by Sandwich ELISA (Duo-set, R&D System). The IC50 is determined from the dose response curve.
# [1] = system: TNBS-induced colitis in mice; assay: TNBS-induced colitis in mice; assay type: in vivo
# Method: Non-fasted, 10-12 week old, male BDF1 mice are dosed by oral gavage twice daily with either vehicle (5 mL/kg), reference item (Budesonide 2.5 mg/kg) or test compound (1 or 5 mg/kg) one day before (Day −1) stimulation of the inflammatory response by treatment with 2,4,6-trinitrobenzenesuiphonic acid (TNBS) (15 mg/mL in 50% ethanol/50% saline). On Day 0 of the study TNBS (200 μL) is administered intra-colonically via a plastic catheter followed by BID dosing of the vehicle, reference or test compound for 2 or 4 days. During the study animals are weighed every day and stool observations are made and recorded as a score, based on stool consistency. At the time of sacrifice on Day 2 (or Day 4) the large intestine is removed and the length and weight recorded. Sections of the colon are taken for either MPO analysis to determine neutrophil infiltration or for histopathology involving scoring to determine disease severity.
# [2] = system: intestinal mucosa biopsies from ulcerative colitis patients; assay: Human biopsy assay (ex-vivo cytokine release); assay type: cell-based
# Method: Intestinal mucosa biopsies are obtained from the inflamed regions of the colon of IBD patients. The biopsy material is cut into small pieces (2-3 mm) and placed on steel grids in an organ culture chamber at 37° C. in a 5% CO2/95% O2 atmosphere in serum-free media. DMSO control or test compounds at the desired concentration are added to the tissue and incubated for 24 hr in the organ culture chamber. The supernatant is harvested for determination of IL-6, IL-8, IL-1β and TNFα levels by R&D ELISA. Percentage inhibition of cytokine release by the test compounds is calculated relative to the cytokine release determined for the DMSO control (100%).
# Syk = Syk (Homo sapiens (Human), UniProt P43405); assay: Syk enzyme inhibition (FRET, Z-LYTE); assay type: biochemical
# How it was run: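 Z-LYTE FRET peptide assay with enzyme preincubated with compound for 2 h at RT, then 1 h kinase reaction and 1 h protease development. ATP solutions were 800 μM for c-Src and 60 μM for Syk. Inhibition was taken from the coumarin/fluorescein emission ratio, and IC50 from concentration-response curves.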
# [3] = 1 μg/ml, 24 hours, DMSO control 100%
# Sequence of GSK3α (P49840 whole entry): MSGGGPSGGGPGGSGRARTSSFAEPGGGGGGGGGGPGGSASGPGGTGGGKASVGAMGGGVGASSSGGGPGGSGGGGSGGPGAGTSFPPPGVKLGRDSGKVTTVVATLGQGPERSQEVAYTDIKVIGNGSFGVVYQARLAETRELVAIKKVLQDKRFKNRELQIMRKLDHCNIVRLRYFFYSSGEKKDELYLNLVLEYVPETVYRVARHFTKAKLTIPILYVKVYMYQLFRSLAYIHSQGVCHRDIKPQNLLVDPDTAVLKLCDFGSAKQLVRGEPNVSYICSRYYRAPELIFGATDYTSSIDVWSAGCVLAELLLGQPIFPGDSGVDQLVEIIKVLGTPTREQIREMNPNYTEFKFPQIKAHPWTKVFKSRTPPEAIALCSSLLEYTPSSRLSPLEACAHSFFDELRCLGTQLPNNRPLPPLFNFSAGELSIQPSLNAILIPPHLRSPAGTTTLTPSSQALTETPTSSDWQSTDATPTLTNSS
compound,measurement,setting,value
"COCCOCCOCCOc1cc(Nc2nccc(Oc3ccc(NC(=O)Nc4cc(C(C)(C)C)nn4-c4cccc(CP(C)(C)=O)c4)c4ccccc34)n2)cc(OC)c1 [Example 60, 1-(3-(tert-Butyl)-1-(3-((dimethylphosphoryl)methyl)phenyl)-1H-pyrazol-5-yl)-3-(4-((2-((3-methoxy-5-(2-(2-(2-methoxyethoxy)ethoxy)ethoxy)phenyl)amino)pyrimidin-4-yl)oxy)-naphthalen-1-yl)urea]",IC50,"PBMCs; IFNγ, read-out: IC50 Values for Inhibition of Cytokine Release, PBMCs IFNγ",1.9 nM
same,IC50,"PBMCs; IL-2, read-out: IC50 Values for Inhibition of Cytokine Release, PBMCs IL-2",16 nM
same,IC50,GSK3α,1100 nM
same,IC50,HT29 cells,0.8 nM
same,TNBS Ulcer grade,"[1]; 5 mg/kg oral, conducted over 2 days, vehicle 3.6 ± 0.3 (exp. 1), 4.4 ± 0.2 (exp. 2)",3.6 ± 0.4
same,TNBS LP inflammation,"[1]; 5 mg/kg oral, conducted over 2 days, vehicle 3.9 ± 0.3 (exp. 1), 4.5 ± 0.2 (exp. 2)",2.8 ± 0.4
same,activity in in vivo model of colonic inflammation (histopathology analysis),[1]; conducted over 2 days,significant activity
same,inflammatory cell infiltrate in the reticular and laminar propria zone,[1]; dosed orally at 5 mg/kg,marked reduction
same,ulcer grade and epithelial repair compared to the vehicle control,[1]; dosed orally at 5 mg/kg,marked improvements
same,"cytokine (IL-1b, IL-6 and IL-8) release compared to the DMSO control","[2]; 1 μg/mL, 24 hours, biopsies from ulcerative colitis patients",significantly inhibited
same,IL-1b release from biopsies of UC patients,[2]; [3],1 ± 2%
same,IL-6 release from biopsies of UC patients,[2]; [3],0 ± 0%
same,IL-8 release from biopsies of UC patients,[2]; [3],2 ± 4%
same,anti-inflammatory effects in biopsies from ulcerative colitis (UC) patients,[2]; ex-vivo human biopsy model,significant anti-inflammatory effects
same,IC50,Syk,8 nM
